Measurements taken from patent US20180340008A1, “ANTIBIOTIC OLIGOPEPTIDE MIMETICS” (priority 2017, published 2018).
Counter-ions that a name gives are not always drawn. Non-standard residues stand in square brackets, D forms with d. Residues, ends and D or L forms follow the SMILES beside them. ξ: configuration not given here. *: point of attachment. ξW = NC(Cc1c[nH]c2ccccc12)C(=O)O; NHOH = ON*

Test system: E. coli (ATTC 8739)
Assay: Zone of inhibition test in Petri dish
Type: cell-based
Method: Compound A was tested against L-phenylalanine-(S)-2-amino-N-hydroxy-4-(methylthio)butanamide hydrochloride (Example 3) in a side-by-side comparison in a conventional zone of inhibition test. In this test, both compounds were compared at various concentrations against E. coli (ATTC 8739) grown in a Petri dish using the antibiotic kanamycin as a control.

Row | SMILES | strength of zone of inhibition (at 50 μg) | concentration at which a zone of inhibition was shown (Petri dish, kanamycin control, FIG. 1A/1B) | strength of zone of inhibition compared with cpd. A at 50 μg (at 12.5 μg)
1 | CSCC[C@H](NC(=O)CN)C(=O)NO [Compound A, reference compound] | quite weak |  | 
2 | CSCC[C@H](NC(=O)C(N)Cc1c[nH]c2ccccc12)C(=O)NO (stereo partly drawn) [Example 3, L-Tryptophan-(S)-2-amino-N-hydroxy-4-(methylthio)butanamide hydrochloride] (H-[ξW]-Met-{NHOH}) |  | 12.5 µg | substantially stronger
